Test results as given in patent publication US8680290B2, “Isoxazoline derivatives and their use as herbicides” (Syngenta Limited, priority 2004, dated 2014).

Experiments:
[1] = test system: Monocotyledonous and dicotyledonous test plants; experiment: Example B1 herbicidal action, application post-emergence (Table B1a); assay type: in vivo; conditions: 250 g/ha, evaluated after 3 weeks, scale 0-10
Procedure: (§1) Monocotyledonous and dicotyledonous test plants were sown in seed trays in standard soil. Immediately after sowing (pre-emergence) or after 8 to 9 days cultivation (post-emergence), the test compounds were applied by spraying in the form of an aqueous solution derived from the formulation of the technical active ingredient in 0.6 ml acetone and 45 ml formulation solution containing 10.6% Emulsogen EL (CAS RN 61791-12-6), 42.2% N-methylpyrrolidone, 42.2% dipropylene glycol monomethyl ether (CAS RN 34590-94-8) and 0.2% X-77 (CAS RN 11097-66-8). The test plants were then grown in a greenhouse under optimum conditions. After a test duration of 3 weeks (post-emergence) or 4 weeks (pre-emergence), the test was evaluated (10=total damage to plant, 0=no damage to plant).

[2] = test system: Monocotyledonous and dicotyledonous test plants; experiment: Example B1 herbicidal action, application pre-emergence (Table B1b); assay type: in vivo; conditions: 250 g/ha, evaluated after 4 weeks
Procedure: as §1

| SMILES | herbicidal damage rating, Abutilon [1] | herbicidal damage rating, Amaranthus [1] | herbicidal damage rating, Digitaria [1] | herbicidal damage rating, Panicum [1] | herbicidal damage rating, Setaria [1] | herbicidal damage rating, Sida [1] | herbicidal action (damage rating 0-10), Amaranthus [2] | herbicidal action (damage rating 0-10), Digitaria [2] | herbicidal action (damage rating 0-10), Panicum [2] | herbicidal action (damage rating 0-10), Setaria [2] | herbicidal action (damage rating 0-10), Sida [2] |
| --- | --- | --- | --- | --- | --- | --- | --- | --- | --- | --- | --- |
| COc1ccccc1C(F)S(=O)(=O)C1=NOC(C)(C)C1 (centres unmarked) [1.104] | 3 | 0 | 8 | 7 | 7 | 2 | 0 | 9 | 10 | 8 | 3 |
| CC1(C)CC(S(=O)(=O)C(F)(F)c2ccccc2F)=NO1 [1.94] | 5 | 7 | 8 | 7 | 8 | 0 | 10 | 10 | 10 | 10 | 8 |
| COC(=O)c1ccc(C(F)(F)S(=O)(=O)C2=NOC(C)(C)C2)c(F)c1 [1.119] | 3 | 5 | 3 | 7 | 7 | 4 |  |  |  |  |  |
| COCCC(c1c(F)cccc1F)S(=O)(=O)C1=NOC(C)(C)C1 (centres unmarked) [Compound No. 1.03] | 0 | 9 | 6 | 9 |  | 5 |  |  |  |  |  |
| CCOC(=O)c1ccc(C(F)(Cl)S(=O)(=O)C2=NOC(C)(C)C2)c(F)c1 (centres unmarked) [1.128] | 2 | 5 | 4 | 7 | 3 | 0 |  |  |  |  |  |
| Cn1nc(C(F)(F)F)c(C(F)(F)S(=O)(=O)C2=NOC(C)(C)C2)c1OCC(F)F [2.21] |  |  |  |  |  |  | 10 | 10 | 10 | 10 | 8 |
| CC1(C)CC(S(=O)(=O)C(Br)c2ccccc2F)=NO1 (racemic) [1.82] |  |  |  |  |  |  | 10 | 9 | 10 | 9 | 0 |
| CC1(C)CC(S(=O)(=O)C(F)c2cc(F)cc3c2OCOC3)=NO1 (centres unmarked) [1.106] |  |  |  |  |  |  | 3 | 7 | 8 | 6 | 0 |
| CC1(C)CC(S(=O)(=O)C(Br)c2ccccc2-c2ccccc2)=NO1 (centres unmarked) [1.151] |  |  |  |  |  |  | 5 | 0 | 8 | 7 | 4 |
| CCC(Cl)(c1c(F)cccc1F)S(=O)(=O)C1=NOC(C)(C)C1 (centres unmarked) [1.16] |  |  |  |  |  |  | 0 | 4 | 5 | 4 | 0 |
| CCOc1c(C(F)(F)S(=O)(=O)C2=NOC(C)(C)C2)c(C(F)(F)F)nn1C [2.17] |  |  |  |  |  |  | 10 | 8 | 8 | 8 | 5 |
| Cc1cc(C(F)(Cl)S(=O)(=O)C2=NOC(C)(C)C2)no1 (centres unmarked) [4.01] |  |  |  |  |  |  | 8 | 8 | 8 | 8 | 8 |
| COc1c(C(F)(F)S(=O)(=O)C2=NOC(C)(C)C2)c(C(F)(F)F)nn1C [Compound No. 2.23, 3-[difluoro-(5-methoxy-1-methyl-3-trifluoromethyl-1H-pyrazol-4-yl)-methanesulfonyl]-5,5-dimethyl-4,5-dihydroisoxazole] |  |  |  |  |  |  | 8 | 7 | 8 | 9 | 3 |
| CC1(C)CC(S(=O)(=O)C(CC=C(F)F)c2c(F)cccc2F)=NO1 (centres unmarked) [Compound No. 1.04] |  |  |  |  |  |  | 0 | 7 | 5 | 2 | 0 |
| CC1(C)CC(S(=O)(=O)C(C(=O)CCl)c2c(F)cccc2F)=NO1 (centres unmarked) [Compound No. 1.60] |  |  |  |  |  |  | 7 | 9 | 10 | 9 | 0 |
| Cc1cc(C(F)S(=O)(=O)C2=NOC(C)(C)C2)no1 (centres unmarked) [4.02] |  |  |  |  |  |  | 10 | 8 | 10 | 7 | 0 |
| CC(=O)C(c1c(C(F)(F)F)nn(C)c1OCC(F)(F)F)S(=O)(=O)C1=NOC(C)(C)C1 (centres unmarked) [2.08] |  |  |  |  |  |  | 4 | 2 | 9 |  | 2 |
| COc1ccccc1C(F)(Cl)S(=O)(=O)C1=NOC(C)(C)C1 (centres unmarked) [1.142] | 0 | 0 | 8 | 7 | 5 | 3 |  |  |  |  |  |
| CC1(C)CC(S(=O)(=O)C(C(=O)C2CC2)c2c(F)cccc2F)=NO1 (centres unmarked) [Compound No. 1.54] |  |  |  |  |  |  | 0 | 8 | 8 | 8 | 0 |
| CC1(C)CC(S(=O)(=O)C(F)(Cl)c2ccccc2-c2ccccc2)=NO1 (centres unmarked) [1.149] | 4 | 4 | 5 | 5 | 3 | 5 |  |  |  |  |  |
| COc1ccccc1C(Cl)S(=O)(=O)C1=NOC(C)(C)C1 (centres unmarked) [1.141] |  |  |  |  |  |  | 5 | 9 | 9 | 9 | 0 |
| CC1(C)CC(S(=O)(=O)C(Br)(Br)c2c(F)cccc2F)=NO1 [1.50] |  |  |  |  |  |  | 10 | 9 | 10 | 10 | 7 |
